ChEMBL document CHEMBL1201862, “PubChem BioAssay data set” (2004)
Calls of active or inactive are those of the source.

Assays:
H9c2 = assay: cells; assay type: functional, cell-based; details: Rattus norvegicus, H9c2, Myocardium;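 note: confirmatory concentration-response retest of ultra-high-throughput screening hits for modulation of myocardial damage; cell death induced by hydrogen peroxide oxidative stress; compound pretreatment for 60 min then peroxide exposure for 2 h; potency is for protecting the cells against peroxide damage rather than for killing them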
[1] = molecular target: T1, Calpain-2 catalytic subunit (Sus scrofa, UniProt P43367); assay: m-calpain protease blockers, concentration series – biochemical, fluorogenic peptide substrate, dose response (AID 1420); assay type: functional
T1 sequence (P43367 whole entry): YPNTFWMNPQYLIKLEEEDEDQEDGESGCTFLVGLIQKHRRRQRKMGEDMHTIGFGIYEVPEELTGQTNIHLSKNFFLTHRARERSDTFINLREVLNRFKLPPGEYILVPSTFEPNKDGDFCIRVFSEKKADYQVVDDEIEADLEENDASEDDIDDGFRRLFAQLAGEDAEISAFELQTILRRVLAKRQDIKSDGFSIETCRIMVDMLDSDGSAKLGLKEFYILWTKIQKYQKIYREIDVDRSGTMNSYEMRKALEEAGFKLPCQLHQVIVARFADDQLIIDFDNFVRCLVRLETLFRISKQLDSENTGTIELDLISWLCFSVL

[2] = molecular target: Luciferin 4-monooxygenase (Photinus pyralis, UniProt P08659); assay: inhibition of purified Photinus pyralis luciferase – biochemical, luminescence, dose response (AID 1891)
Sequence of Luciferin 4-monooxygenase (P08659 whole entry): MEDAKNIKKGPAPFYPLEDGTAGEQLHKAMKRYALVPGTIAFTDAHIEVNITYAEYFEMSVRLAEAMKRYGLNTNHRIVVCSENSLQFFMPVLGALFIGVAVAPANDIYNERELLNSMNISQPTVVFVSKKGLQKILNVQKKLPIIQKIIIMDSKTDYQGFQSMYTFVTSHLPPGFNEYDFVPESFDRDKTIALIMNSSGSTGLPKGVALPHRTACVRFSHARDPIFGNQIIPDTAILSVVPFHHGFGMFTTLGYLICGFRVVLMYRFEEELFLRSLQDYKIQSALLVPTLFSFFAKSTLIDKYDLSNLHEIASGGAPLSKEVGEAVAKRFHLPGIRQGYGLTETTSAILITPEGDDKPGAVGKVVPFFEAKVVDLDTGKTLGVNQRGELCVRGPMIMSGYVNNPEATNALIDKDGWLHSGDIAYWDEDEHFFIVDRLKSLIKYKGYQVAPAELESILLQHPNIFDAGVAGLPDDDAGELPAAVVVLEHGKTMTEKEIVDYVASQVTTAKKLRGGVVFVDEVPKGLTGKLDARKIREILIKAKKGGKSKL

[3] = Luminescence Cell-Based Dose Confirmation HTS to Identify Inhibitors of Platelet Dense Granule Release. [Related pubchem assays: 1663 (Primary HTS), 1678 (Summary of Project)]; assay type: functional
[4] = viability of uninfected HEp-2 cells – cell-based, HTS, cytotoxicity control for RSV inhibitor project, dose response (AID 2410); assay type: functional; details: human respiratory syncytial virus
[5] = Luminescence Cell-Based Dose Response HTS to Identify Activators of Luciferase Translation or Activity in H4 […] Cells. [Related pubchem assays: 1829 (Project Summary), 1814 (Primary HTS)]; assay type: functional
H4 = assay: Luminescence Cell-Based Dose Response HTS to Identify Activators of 5'UTR Stem-Loop Driven Prion Protein mRNA Translation in H4 Neuroglioblastoma Cells. [Related pubchem assays: 1829 (Project Summary), 1814 (Primary HTS)]; assay type: functional; details: Homo sapiens
[6] = Luminescence Cell-Based Dose Retest to Confirm Inhibitors of Cancer Stem Cells. [Related pubchem assays (depositor defined):AID2717, AID2721]; assay type: functional; details: Homo sapiens
[7] = molecular target: T2, Corticotropin-releasing factor receptor 2/Corticotropin-releasing factor-binding protein (Homo sapiens, UniProt P24387+Q13324); assay: Dose Response confirmation of uHTS hits for small molecule antagonists of the CRF-binding protein and CRF-R2 receptor complex.; assay type: functional; details: read-out: IC50_Mean
T2 sequence (Q13324 whole entry): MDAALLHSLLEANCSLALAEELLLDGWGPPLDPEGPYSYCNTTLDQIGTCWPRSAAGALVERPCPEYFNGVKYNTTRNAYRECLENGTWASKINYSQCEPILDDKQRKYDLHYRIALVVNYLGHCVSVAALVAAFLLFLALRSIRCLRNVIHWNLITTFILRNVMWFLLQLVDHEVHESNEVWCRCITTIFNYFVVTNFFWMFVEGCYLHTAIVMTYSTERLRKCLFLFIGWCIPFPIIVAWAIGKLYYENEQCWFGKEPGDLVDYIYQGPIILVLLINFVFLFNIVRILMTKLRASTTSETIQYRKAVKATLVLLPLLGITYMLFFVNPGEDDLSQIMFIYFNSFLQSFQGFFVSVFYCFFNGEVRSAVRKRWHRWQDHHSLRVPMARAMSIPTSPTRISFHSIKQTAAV
T2 sequence (P24387 whole entry): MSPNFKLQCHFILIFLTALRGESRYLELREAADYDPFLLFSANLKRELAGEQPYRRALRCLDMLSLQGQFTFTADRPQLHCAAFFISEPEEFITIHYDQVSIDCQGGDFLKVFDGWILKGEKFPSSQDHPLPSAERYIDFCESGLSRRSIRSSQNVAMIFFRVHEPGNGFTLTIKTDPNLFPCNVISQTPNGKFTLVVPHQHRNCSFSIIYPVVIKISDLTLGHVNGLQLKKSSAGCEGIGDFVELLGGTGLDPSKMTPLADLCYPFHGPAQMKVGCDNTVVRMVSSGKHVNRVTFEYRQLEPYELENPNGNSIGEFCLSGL

[8] = molecular target: T2, Corticotropin-releasing factor receptor 2/Corticotropin-releasing factor-binding protein; assay: activators of CRF receptor 2 with binding protein – uHTS hits, confirmation (AID 602473); assay type: functional; details: read-out: EC50_Mean
[9] = Trypanosoma cruzi growth suppression in host cells – NIH3T3 host cells, beta-gal luminescence, confirmation (AID 2044); assay type: functional, cell-based;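 note: intracellular parasites grown in NIH/3T3 mouse fibroblasts as host cells; luminescent beta-galactosidase reporter signal from transgenic T. cruzi replicating inside host cells; inhibitors lower the luminescence signal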
[10] = NIH3T3 cell viability loss – ATP luminescence, mouse fibroblasts, counter-screen, dose response (AID 2010); assay type: functional, cell-based;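 note: cells exposed to compound for about 90 hours before reading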
[11] = Luminescence Cell-Based Dose Response HTS to Identify Inhibitors of 5'UTR Stem-Loop Driven Prion Protein mRNA Translation in H4 Neuroglioblastoma Cells. [Related pubchem assays: 1827 (Project Summary), 1813 (Primary HTS)]; assay type: functional
[12] = molecular target: T3, Rac GTPase-activating protein 1 (Homo sapiens, UniProt Q9H0H5); assay: blockers of MgcRacGAP-driven Rac1 GTP hydrolysis – biochemical, ADP Hunter fluorescence, primary and confirmatory, confirmation (AID 624330); assay type: functional
T3 sequence (Q9H0H5 whole entry): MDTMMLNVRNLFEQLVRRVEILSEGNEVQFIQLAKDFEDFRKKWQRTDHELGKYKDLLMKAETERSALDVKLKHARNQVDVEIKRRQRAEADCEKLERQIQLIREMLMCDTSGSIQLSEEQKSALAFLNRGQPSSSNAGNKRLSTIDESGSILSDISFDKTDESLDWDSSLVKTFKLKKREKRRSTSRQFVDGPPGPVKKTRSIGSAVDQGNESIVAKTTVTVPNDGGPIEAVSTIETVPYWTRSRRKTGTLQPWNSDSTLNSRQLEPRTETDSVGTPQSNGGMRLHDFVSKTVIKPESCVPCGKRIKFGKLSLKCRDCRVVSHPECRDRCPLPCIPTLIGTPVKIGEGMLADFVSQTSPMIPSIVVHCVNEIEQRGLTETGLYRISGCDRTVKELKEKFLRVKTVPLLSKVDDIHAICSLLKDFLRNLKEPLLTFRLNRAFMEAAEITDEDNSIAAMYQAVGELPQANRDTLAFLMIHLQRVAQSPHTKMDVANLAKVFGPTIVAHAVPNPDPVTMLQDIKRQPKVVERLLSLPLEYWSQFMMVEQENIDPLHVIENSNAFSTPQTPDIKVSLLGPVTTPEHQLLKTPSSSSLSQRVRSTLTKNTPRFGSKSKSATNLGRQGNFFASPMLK
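Throughout, for AC50: cells exposed to compound for roughly 70 hours or longer before luminescence read.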

CCOC(=O)N1CCc2c(sc(NC(=O)CN3CCOCC3)c2C(=O)Nc2ccccc2)C1
IC50 (H9c2): 22.8 µM (active)

COc1cccc(C2CC(c3ccccc3OC)n3nc(N)nc3N2)c1 (configuration not stated)
IC50 [1]: > 50 µM (not active)

O=c1c2ccccc2nc(-c2ccc(Cl)c(Cl)c2)n1O
IC50 (H9c2): > 79 µM (inactive)

COc1ccc(C(=O)Nc2ccccc2C(=O)N/N=C/c2ccncc2)cc1OC
EC50 [2]: 0.609 µM (active) | EC50 [3]: 0.564 µM (active)

CCN1CCN(c2nc(O)c3c(n2)CCCC3)CC1
IC50 (H9c2): > 79 µM (inactive)

CCOc1ccccc1Cn1c(=O)sc2ccccc21
IC50 [1]: 13.1 µM (not active)

O=c1oc(Nc2cccc(Cl)c2)nc2ccccc12
EC50 [2]: 37.7 µM (active) | EC50 [3]: 16 µM (active)

CC(=O)Nc1ccccc1C(=O)C(=O)Nc1cccc(C(=O)NCC2CCCO2)c1 (configuration not stated)
IC50 [1]: 7.39 µM (not active)

Cn1c(=O)n(C)c2cc([N+](=O)[O-])c(N3CCN(CCO)CC3)cc21
IC50 [1]: 7.45 µM (not active)

Cc1ccc(OCCn2cc(/C=C(\C#N)C(=O)NCC3CCCO3)c3ccccc32)cc1 (configuration not stated)
CC50 [4]: 38.7 µM (active)

CCc1ccc(NC(=O)Nc2ccsc2C(=O)OC)cc1
EC50 [2]: 0.701 µM (active) | EC50 [3]: 2.06 µM (active)

S=C(NCC1CC1)N/N=C/c1ccccc1Cl
EC50 [2]: > 112 µM (not active) | EC50 [3]: > 112 µM (not active)

N#CCCN(C(=O)COC(=O)CCc1nc(O)c2ccccc2n1)c1ccc(F)cc1
IC50 (H9c2): > 79 µM (inactive)

O=C(COc1ccc(Br)cc1CO)Nc1ccccc1F
CC50 [4]: 35.2 µM (active)

Cc1ccc(C2(CCNCc3ccc(N(C)C)cc3)CCOC(C(C)C)C2)cc1 (configuration not stated)
CC50 [4]: 12.6 µM (active)

COc1ccc(OC)c(NC(=O)c2sc3ncnc(N4CCN(c5ccccn5)CC4)c3c2C)c1
IC50 (H9c2): > 79 µM (inactive)

COc1ccc(-c2nnc(SC(C)C(=O)Nc3cccc(Cl)c3)o2)cc1 (configuration not stated)
IC50 [1]: 11.7 µM (not active)

O=C(CSc1ccc(-c2ccccc2)nn1)N1CCCCC1
EC50 [5]: 25.4 µM (active) | EC50 (H4): 65.2 µM (active)

COc1ccccc1C(=O)Nc1ccc(S(=O)(=O)N(C)c2ccccc2)cc1
CC50 [4]: 29.4 µM (active)

Cc1cccc(OCCNc2ccc([N+](=O)[O-])cn2)c1
IC50 [1]: > 50 µM (not active)

Cc1ccc(-c2nnc(NCc3nc4ccccc4[nH]3)c3ccccc23)cc1S(=O)(=O)N1CCOCC1
IC50 (H9c2): > 79 µM (inactive)

Cc1cc2nnc(SC(C)C)n2c2ccccc12
CC50 [4]: > 50 µM (active)

COc1ccc(CC(=O)NCC(=O)N/N=C/c2cc(Br)ccc2OC)cc1
IC50 (H9c2): 34.7 µM (inactive)

[2H]c1c([2H])c([2H])c(-c2nc(N3CCCCCC3)sc2C(=O)c2ccccc2)c([2H])c1[2H]
CC50 [4]: 41.6 µM (active)

CCCCn1c(N)c(N(CC(C)C)C(=O)c2ccc(Br)s2)c(=O)[nH]c1=O
EC50 [2]: > 112 µM (not active) | EC50 [3]: > 112 µM (not active)

COc1ccccc1NC(=O)/C(=C/c1cccs1)NC(=O)c1ccco1
IC50 [1]: 26 µM (not active)

CC(C)CCNc1nc(-c2ccco2)c2c(c1C#N)CCCC2
AC50 [6]: 10.4 µM (active)

CSc1ccc(/C=N/NC(=O)c2cc(O)cc(O)c2)cc1
EC50 [2]: 1.22 µM (active) | EC50 [3]: 10 µM (active)

COc1cc(C(=O)N2CCN(c3ccc([N+](=O)[O-])cc3)CC2)ccc1OCc1c(C)noc1C
EC50 [2]: 40.2 µM (active) | EC50 [3]: > 112 µM (not active)

CCOc1ccc(CC(=O)Nc2c(C(N)=O)oc3ccc(Br)cc23)cc1OCC
IC50 (H9c2): > 79 µM (inactive)

COc1ccc(NC(=O)CC2C(=O)N(C)C(=S)N2CCc2ccccc2)cc1 (configuration not stated)
CC50 [4]: 18 µM (active)

CC(CCc1ccco1)NC(=O)CCc1nnc2ccc(NCc3ccccc3)nn12 (configuration not stated)
EC50 [2]: > 112 µM (not active) | EC50 [3]: > 112 µM (not active) | IC50 [7]: > 47.1 µM (inactive) | EC50 [8]: > 53 µM (inactive)

COc1ccccc1N(Cc1ccccc1)S(=O)(=O)c1cccc(C(=O)Nc2ccc(C)cn2)c1
CC50 [4]: 11 µM (active) | EC50 [9]: 1.58 µM (active) | EC50 [10]: > 30 µM (not active)

CC(Sc1nnc(-c2ccc(O)cc2)o1)C(=O)Nc1cccc2ccccc12 (configuration not stated)
IC50 [1]: < 0.4 µM (not active)

O=C(CCN1Cc2ccccc2C1)c1ccc2c(c1)OCCO2
AC50 [6]: 11.5 µM (active)

COc1ccc(OC)c(Nc2nc(NCc3ccco3)c3ccccc3n2)c1
EC50 [2]: 18.7 µM (active) | EC50 [3]: 49 µM (active)

O=C(CN1C(=O)C2CC=CCC2C1=O)Nc1nc(-c2ccc(F)c(F)c2)cs1 (configuration not stated)
IC50 (H9c2): > 79 µM (inactive)

C/C(=N\O)[C@H]1CC[C@H]2[C@@H]3CC[C@H]4C/C(=N\O)CC[C@]4(C)[C@H]3C(C)(O)C[C@]12C (some centres not stated)
IC50 (H9c2): > 79 µM (inactive)

CCN(CC)c1nc(SCCOC(=O)Nc2ccccc2)nc(N(CC)CC)n1
EC50 [9]: 1.73 µM (active) | EC50 [10]: > 60 µM (not active) | AC50 [6]: 2.79 µM (active)

CCCCC(=O)Nc1nc(C)c(-c2csc(Nc3cc(Cl)ccc3OC)n2)s1
CC50 [4]: 26.5 µM (active)

CCc1nnc(S)n1/N=C/c1c(C)nn(-c2ccccc2)c1Cl
EC50 [11]: 19 µM (active)

Fc1ccc(-c2ccc(-c3nn4c(-c5ccco5)nnc4s3)o2)cc1
IC50 (H9c2): 36.1 µM (inactive)

O=C(O)c1ccc(-c2noc(-c3ccccc3F)n2)cc1
EC50 [2]: 1.45 µM (active) | EC50 [3]: 1.6 µM (active)

CC(C)N(Cc1nc(-c2ccccc2)no1)C(=O)CCCN1C(=O)c2ccccc2C1=O
IC50 [1]: > 50 µM (not active)

Cc1ccc(-c2nc3ccccc3[nH]2)s1
EC50 [2]: 0.951 µM (active) | EC50 [3]: 7.89 µM (active)

Oc1ccc(/C=C/c2ccc3ccccc3n2)cc1
CC50 [4]: 19.7 µM (active) | EC50 [2]: 0.161 µM (active) | EC50 [3]: 0.235 µM (active) | IC50 [12]: 28 µM (active)

CN(C)S(=O)(=O)n1cc(/C=C(\NC(=O)c2ccccc2F)C(=O)NCCN2CCOCC2)c2ccccc21
IC50 (H9c2): > 79 µM (inactive)

COc1ccc(/C=C/C2=NC(=C\N(C)C)/C(=O)O2)cc1
EC50 [5]: 11.2 µM (active) | EC50 (H4): 8.24 µM (active)

O=C(/C=C/c1c(F)cccc1Cl)Nc1nc2ccccc2[nH]1
EC50 [5]: 0.14 µM (inconclusive) | EC50 (H4): 10.4 µM (active)
